The text below walks through data of US12070458B2, “Therapeutic agent composition and method of use, for treatment of mild congnitive impairment, depression, and psychological disorders” (priority 2018, dated 2024).

In data set [1] the test system is patients with major depressive disorder. Briefly: Double-blind, randomized, placebo-controlled, active reference study in patients with major depressive disorder. Format: in vivo, human. The conditions noted are these: for change from baseline in MADRS total score, Mean ± SD / MADRS total score, Difference to Placebo: week 6, venlafaxine 75 mg/d orally. An excerpt:
This randomized, double-blind, fixed-dose, placebo-controlled, active reference study recruited 32 randomized patients in accordance with the principles of Good Clinical Practice [ICH (1996). Harmonized Tripartite Guideline E6: Guideline for Good Clinical Practice (http://www.fda.gov/downloads/drugs/guidancecomplianceregulatoryinformation/gui dances/ucm073122.pdf)] and the Declaration of Helsinki [WMA (1964). Ethical Principles for Medical Research Involving Human Subjects (http://www.wma.net/en/30publications/10policies/b3/). World Medical Association.] Local ethics committees approved the study design and eligible patients gave their written informed consent before participating.
Eligible patients were randomized equally (1:1:1:1) to one of the four treatment arms for a 6-week double-blind treatment period. Randomized patients were given 1-week wallet cards at each visit and were instructed to take two capsules per day, orally, at the same time every day (preferably in the morning). NA-831 was dosed at 20 mg/day or 40 mg/d for 6 week and venlafaxine at 75 mg/d over 6-week treatment period. Efficacy and tolerability were assessed at screening, baseline and after 1, 2, 3, 4, 5, and 6 week. Patients were contacted for a safety follow-up 4 week after the completion visit.
Patients with MDD presenting with a current major depressive episode according to DSM-IV-TR criteria were included in the study if they were an outpatient of either sex, aged from 20 yr to 65 yr, (mean=39.7±8.5) (with a Montgomery—Åsberg Depression Rating Scale (MADRS) (Montgomery & Åsberg, 1979) total score ≥30 at the baseline visit. [Montgomery S Åsberg M (1979). A new depression scale designed to be sensitive to change. British Journal of Psychiatry 134 382-389.https://doi.org/10.1192/bjp.134.4.382]
Patients were evaluated using the MADRS from baseline to week 6. Rater training was undertaken to increase inter-rater reliability, and was supervised by an experienced investigator. Only those investigators who had actively participated in rater training sessions prior to inclusion of patients into the study were allowed to rate patients. Patient ratings were assessed by the same investigator at each visit, whenever possible.
All safety analyses were based on the all-patients-treated set (APT), comprising all randomized patients who took at least one dose of study medication. All efficacy analyses were based on a modified intent-to-treat set (ITT)—the full-analysis set (FAS), comprising all patients in the […] who had at least one valid post-baseline MADRS total score assessment.
Four hypotheses were part of the primary efficacy analysis, which was fully adjusted for multiplicity using a hierarchical testing procedure at the 5% level of significance as long as the previous hypothesis was rejected. The order of testing was: no difference between the 20 mg dose vs. placebo at week 6, no difference between […] at week 6, no difference between 20 mg dose vs. placebo at week 1, and finally no difference between 40 mg dose vs. placebo at week 1. The statistical model was an analysis of covariance (ANCOVA) of the change from baseline in MADRS total score (FAS, LOCF) with treatment and site as fixed factors and the baseline MADRS score as a covariate. The primary efficacy analysis was repeated on observed cases (OC) data, using both an ANCOVA and a mixed model for repeated measurements (MMRM).
All adverse effects (AEs) (including any change in concurrent illnesses or new illnesses) either observed by the investigator or reported spontaneously by the patient were recorded. AEs were coded using the lowest level term according to the Medical Dictionary for Regulatory Activities, version 10.0. As a post-hoc analysis, the safety database was searched at preferred-term and verbatim-term level for possible suicide-related AEs, as described by the FDA [Laughren (2006). Memorandum on Suicidality. (http://www.fda.gov/ohrms/dockets/ac/06/briefing/2006-4272b1-01-fda.pdf)].

Data set [2] concerns 6-OHDA induced nigral-striatal lesion. As to the kind of experiment: 6-OHDA induced nigral-striatal lesion, apomorphine-induced contralateral rotations. It is filed as in vivo, Wistar rats. The conditions noted are these: 1 mg (mg/kg) i.p. 2 hours post lesion; 7 days post-lesion, apomorphine 0.1 mg/kg; n=5; vehicle 290±18 or 292±21. How it is done:
Twenty male Wistar rats (280-310 g) were used. After exposing the skull, 6-OHDA (8 μg in a base of 2 μl 0.9% saline containing 1% ascorbic acid) was administered into the right medial forebrain bundle (MFB) using co-ordinates AP +4.7 mm, R 1.6 mmv −8 mm under 3% halothane anaesthesia. 6-OHDA was injected through a 25G needle connected via a polyethylene catheter to a 100 μl Hamilton syringe. The 6-OHDA was infused by a microdialysis infusion pump at a rate of 0.5 μl/min. The needle was left in the brain for a further 3 minutes before being slowly withdrawn. The skin was sutured with 2.0 silk and the rats were allowed to recover from anaesthesia. The rats were housed in a holding room with free access to food and water at all times except during behavioural testing.
Cyclic PG was dissolved in saline. Four different doses of cPG (0, 0.1, 0.5, 1 mg/kg, Bachem) were administered intraperitoneally 2 hours post lesion.
At 7 days post-lesion, rats were injected with 0.1 mg/kg apomorphine and the number of contralateral rotations/hour was recorded and calculated using a computerised Rotameter (St Diego Instruments). Experimenter was blinded from the treatment groups.
Cyclic(tri(prolylglycyl)) was dissolved in saline solution. Four different doses of Cyclic(tri(prolylglycyl)) (0, 0.1, 0.5, 1 mg/kg, NeuroBiomed) were administered intraperitoneally 2 hours post lesion.
Cyclic Glycyl-2-Methyl Proline (cGMeP) was dissolved in saline solution. Four different doses of cGMeP (0, 0.1, 0.5, 1 mg/kg, NeuroBiomed) were administered intraperitoneally 2 hours post lesion.

In data set [3] the test system is cerebellar microexplants (P4). As to the kind of experiment: Glutamate induced neuronal death in cerebellar microexplants (P4). It is filed as cell-based, Wistar rats. How it is done:
Cerebellar Cell Culture Preparing and Coating of Cover Slips
Ten coverslips were placed into a large petri dish and washed in 70% alcohol for 5 minutes, then washed with Millipore H2O. The coverslips were air dried, then coated with Poly-D-Lysine (1 mg/ml stock solution in PBS, 90-100 μl) and incubated for 2 hours at 34° C.
Postnatal day 4 Wistar rats were used for the study. Rats were placed in ice for 1 minute, the heads were decapitated and the cerebellum removed on ice. Cerebellum tissue was placed in 1 ml of 0.65% glucose supplemented PBS (10 μl 65% stock D (+)glucose/1 ml PBS) in a large petri dish, chopped up into smaller sections and triturate with a 1 ml insulin syringe via a 23 G (0.4 mm) needle, and then squirted back into the glucose solution on the large petri dish. The tissue was sieved through (125 μm pore size gaze) and centrifuged (2 minutes at 60 g) two times for a medium exchange into serum-free BSA-supplemented START V medium (Biochrom). The second centrifugation step was done with 1 ml of START V medium. The microexplants were reconstituted into 500 μl of START V medium and put on ice.
Cultivation and Fixation of Cerebellar Cells
Two hours after PDL-coating, the slides were washed with Millipore H2O and air dried. Each slide was placed into a small 35 mm petri dish and 40 μl of START V/cell suspension added. The tissue was incubated for 2 hours at 34° C. (settlement period). START V-medium (1 ml) was then added to the petri dish and cultivated at 34° C./5% CO2/100% humidity for 48 hours. Cells were rinsed in PBS and then fixed for 2-3 minutes in increasing concentrations of paraformaldehyde (500 μl of 0.4% PFA was applied; then 1.2% PFA; then 3% PFA and finally 4% PFA—all fixation solutions contain 0.2% glutardialdehyde). Finally, the microexplants were rinsed in PBS.
10 μl of toxin (L-glutamate-100 mM in Millipore water) was applied simultaneously with cPG (from bachem, 10 mM stock prepared in PBS and diluted to final concentrations between 1-100 nM) for Study 1. A delay in administration of cPG at 6 hours after glutamate treatment was performed for Study 2.
10 μl of toxin (L-glutamate-100 mM in Millipore water) was applied simultaneously with cyclic(tri(prolylglycyl)) (which was obtained from NeuroBiomed, San Jose, California), 10 mM stock prepared in PBS and diluted to final concentrations between 1-100 nM) for Study 1. A delay in administration of cyclic(tri(prolylglycyl)) at 6 hours after glutamate treatment was performed for Study 2.
10 μl of toxin (L-glutamate-100 mM in Millipore water) was applied simultaneously with cyclic Glycyl-2-Methyl Proline (obtained NeuroBiomed, San Jose California), 10 mM stock prepared in PBS and diluted to final concentrations between 1-100 nM) for Study 1. A delay in administration of cPG at 6 hours after glutamate treatment was performed for Study 2.

`COc1ccc(C(CN(C)C)C2(O)CCCCC2)cc1` (stereo not drawn) [Venlafaxine, reference compound]: the “patients with one or more AEs” value in data set [1] (6-week treatment period, venlafaxine group) came to 75%. For the same molecule, the “change from baseline in MADRS total score, Mean ± SD” value in data set [1] (LOCF, ANCOVA) is given as −21.9 ± 1.0; in data set [1] (MMRM), −23.5 ± 0.9; in data set [1] (OC, ANCOVA), −22.2 ± 0.9. Besides, the “MADRS total score, Difference to Placebo” value was −8.1 ± 1.3 in data set [1] (MMRM); 5.6±1.3 in data set [1] (MMRM, listed as venlafaxine); −5.6 ± 1.3 in data set [1] (OC, ANCOVA). Besides, the “patients withdrawn due to AEs” value in data set [1] (venlafaxine group) was 2 (25%) patients (%). Also, in data set [1] (venlafaxine group, 6 week), the “AEs reported by a majority of patients” value was “nausea, severe headache loss of strength, blurred vision, chest pain, fast or irregular heartbeat and suicidal thoughts”.

In the case of `CC12CCCN1C(=O)CNC2=O` [cGMeP, (8aS)-Methyl-hexahydropyrrolo[1,2-a]pyrazine-1,4-dione], in data set [2], the “number of contralateral rotations/hour” value came out at 134±69 rotations/hour. Also, the “improvement, recovery from glutamate induced neurotoxicity” value in data set [3] (1-100 nM given 6 hours after the glutamate treatment, compared to vehicle) is given as “approximately 58%”. Further, the “reduction of glutamate induced neuronal death” value in data set [3] (administered simultaneously with glutamate, 1-100 nM, glutamate alone 85% loss of neurons) is listed as 63%.
